Test results as given in US20240425490A1, “SULFAMIDE RIBONUCLEOTIDE REDUCTASE (RNR) INHIBITORS AND USES THEREOF” (Boundless Bio, Inc., priority 2021, published 2024).

Target: T1, RNR (RNR1:RNR2 1:1) (Homo sapiens, UniProt P23921)
T1 sequence (P23921 1-792): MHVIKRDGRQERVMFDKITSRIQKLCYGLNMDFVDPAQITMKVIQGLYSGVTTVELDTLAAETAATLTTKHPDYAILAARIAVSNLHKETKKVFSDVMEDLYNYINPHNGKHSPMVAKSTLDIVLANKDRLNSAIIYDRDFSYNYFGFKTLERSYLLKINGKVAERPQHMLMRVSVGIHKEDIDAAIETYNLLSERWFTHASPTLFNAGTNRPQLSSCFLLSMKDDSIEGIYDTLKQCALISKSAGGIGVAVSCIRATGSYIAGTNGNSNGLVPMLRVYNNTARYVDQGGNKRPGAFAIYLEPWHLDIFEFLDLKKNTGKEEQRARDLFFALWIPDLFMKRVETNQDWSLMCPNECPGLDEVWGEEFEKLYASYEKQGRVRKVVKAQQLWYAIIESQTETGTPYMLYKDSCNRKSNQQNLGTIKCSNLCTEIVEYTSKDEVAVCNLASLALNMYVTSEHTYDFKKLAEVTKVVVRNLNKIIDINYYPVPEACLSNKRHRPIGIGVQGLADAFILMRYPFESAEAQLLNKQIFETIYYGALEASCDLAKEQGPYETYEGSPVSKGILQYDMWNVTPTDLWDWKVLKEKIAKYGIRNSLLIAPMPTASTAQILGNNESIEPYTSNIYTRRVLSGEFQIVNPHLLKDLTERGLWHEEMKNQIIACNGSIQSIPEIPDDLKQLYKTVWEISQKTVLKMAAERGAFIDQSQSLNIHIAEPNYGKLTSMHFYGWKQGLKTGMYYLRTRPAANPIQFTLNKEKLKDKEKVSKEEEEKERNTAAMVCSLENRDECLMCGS
Experiment: RNR enzyme activity, rapid-fire mass spectrometry (RFMS) assay
Format: biochemical
Conditions: RNR 50 nM, CDP 5 μM, ATP 1 mM, 37° C., 45 min, compounds screened up to 50 μM, read-out: RF/MS IC50
Procedure, shortened: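 Human RNR1:RNR2 (1:1, 50 nM) pre-incubated 15 min at room temperature with compound, then reacted with 5 μM CDP and 1 mM ATP, no NADPH, for 45 min at 37 °C. Stopped with 6% HCOOH; turnover read by rapid-fire mass spectrometry; Triapine and hydroxyurea as reference compounds.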

Structure (SMILES): Cc1ccc(F)c(C(C)[C@H](NS(=O)(=O)N2CCN(C)CC2)c2n[nH]c(=O)o2)c1C (stereo partly drawn) [Example 139, N-((1S)-2-(6-fluoro-2,3-dimethylphenyl)-1-(5-oxo-4,5-dihydro-1,3,4-oxadiazol-2-yl)propyl)-4-methylpiperazine-1-sulfonamide]
- IC50: 100 to 1000 nM
